For assay [1], the system named is β-1. As to conditions: EP-0,334,429; cited from earlier work.
In assay [2] the test system is primary embryonic hippocampal cultures. The assay can be described thus: VitE complementation (vitE depletion) test on primary neuronal cultures. The class given is cell-based, rats. As to conditions: for rescue of survival of vitE depleted cultures: 10^-7 M and 10^-6 M. Here is the method:
Primary embryonic hippocampal cultures were prepared essentially as described previously (Pauwels et al., Van Aschouw, H. P., Peeters, L., Moeremans, M., Leysen, J. E. (1992) Chronic treatment with sabeluzole protects cultured rat brain neurons from the neurotoxic effects of excitatory amino acids. Synapse, 12:271-280). Hippocampal formations of rats at embryonic day 17 were dissected and dissociated in 0.05% trypsin, 0.1 mg/ml DNase I in DMEM (Dulbecco Modified Eagle Medium). Heat-inactivated horse serum (HS) was added to a concentration of 4%, and the cells were centrifuged, washed with DMEM, and resuspended in DMEM/Ham's F12 (3:1) containing 10% HS. The cells were plated at a density of 4×10^5 cells/cm^2 in poly L-lysine (0.001%) precoated multiwell-24 plates. On day 1 in culture, the medium was changed to chemically defined CDM-R12 medium (DMEM-HEPES/Ham's F12 (3:1) containing 0.26% bovine serum albumin, 30 nM sodium selenite, 3 nM 3,3',5 triiodo-L-thyronine, 0.35 μM retinol, 0.3 μM retinol acetate, 2.3 μM DL-a-tocopherol, 2.1 μM DL-a-tocopherol acetate, 3.6 μM linolenic acid, 3.6 μM linoleic acid, 0.125% human transferrin, […], 57.7 nM corticosterone, 49 U/I insulin, 0.4 μM biotin, 10 μM L-carnitine, 83 μM D(+)-galactose, 3.3 μM glutathione, 10 μM ethanolamine, 0.1 mM putrescine; Romijn, H. J., van Huizen, F., Wolters, P. S. (1984) Towards an improved serum-free, chemically defined medium for long-term culturing of cerebral cortex tissue. Neurosci. Behav. Rev., 8:301-334). Acute and prolonged pretreatment of the, cultures was essentially as described previously (Pauwels et al., 1992). Drugs were dissolved, and diluted in 10% or 1% hydroxypropyl-β-cyclodextrin such that the final concentrations of the solvent in the acute and chronic exposures were 0.1% and 0.01% respectively. Compound A as used in the following examples is [(RRSR)+(RRRS)+(SSSR) +(SSRS)]-α-[[[2-(chroman-2-yl)-2-hydroxy-ethyl]amino]methyl]-6-hydroxy-2-chromanmethanol ethanedioate (1:1).
For vitE depletion experiments, primary cultures were set up as above, but on day 1 in culture, the medium was changed to chemically defined CDM-R12 medium with (control) or without DL-a-tocopherol (vitE) and DL-a-tocopherol acetate, in the presence or absence of test coumpound. […] Addition of compounds could rescue the cultures. […] The EC50 for complementation of vitE refers to the concentration of the compound required to restore culture survival to 50% of the survival seen for the culture grown in vitE supplemented medium. Seven concentrations of each compound were tested in triplicate, the number of independent experiments is indicated in the table, and the mean EC50 -value±SD was calculated.
Primary neuronal cultures depend on the presence of the antioxidant vitE in the culture medium for survival in vitro. When vitE depleted medium is used to grow the cultures, survival drops to ±20% of control. Compounds with antioxidative properties are able to complement the lack of vitE, and as such can when added to the culture medium, rescue vitE devoid cultures. Several nebivolol derivatives were tested at 10^-7 M and 10^-6 M in the vitE depletion test on primary neuronal cultures.
When nebivolol derivatives were administered during culture, the cultures could be rescued to a certain extent. 100% vitE complementation refers to the survival of a cell culture which is indifferent from a vitE containing cell culture.
When hydroxynebivolol was administered during culture, the cultures could be rescued. The EC50 refers to the concentration at which the culture is rescued for 50%, as measured by cytoplasmic LDH activity.

For assay [3] the following is noted: atenolol, propanolol, prazosin, hydralazine and its own (SRRR) enantiomer; EP-0,334,429; cited from earlier work.
Assay [4] deals with C6 glioma cells. As to the kind of experiment: GSH content in C6 glioma cultures after glutamate. The assay is classed as cell-based. From the text: (§1) Competitive inhibition by glutamate of cystine uptake in certain cells leads to glutathione depletion and oxidative stress. This oxidative stress model has been described for glial C6 glioma cells (Kato et al., 1992. A mechanism for glutamate toxicity in the C6 glioma cells involving inhibition of cystine uptake leading to glutathione depletion. Neurosci. 48:903-914) and for the neuronal cell line N18RE105 (Murphy et al., 1989. Glutamate toxicity in a neuronal cell line involves inhibition of cystine transport leading to oxidative stress. Neuron 2:1547-1558).
(§2) Cell culture: The C6 glioma cell line (American Type Culture Collection, CCL 107) was cultivated in DMEM supplemented with 2 or 4 mM glutamine, 1 mM pyruvate and 5 or 10% heat-inactivated foetal calf serum. Cultures were maintained at 37° C. in an air/5~10% CO2, water saturated atmosphere.
(§3) Glutathione depletion and evaluation of drugs as antioxidants: Experiments were carried out with cultures plated at 30,000~50,000 cells/cm^2 in 24-well culture plates (for toxicity and lipid peroxide measurements) or at 136,000 cells/cm^2 in 96-well culture plates (for GSH determination). After 8-24 hr, the cultures were switched to culture medium in the absence or presence of the cystine uptake inhibitor glutamate at a final concentration of 10 mM. In order to test drugs for inhibition of oxidative stress, the drug was added together with glutamate (final concentration of solvent was 0.01% hydroxypropyl-β-cylodextrin, 0.1% DMSO). Intracellular glutathione levels were measured after 6~8 hr, lipid peroxides were measured after 14~20 hr, and toxicity and protection were analysed after 48 hr using an LDH assay according to the method of Bergmeyer and Bernt (UV-assay with pyruvate and NADH. In: Methods of Enzymatic Analysis. 1974. H. U. Bergmeyer, ed. Acad. Press, New York, 2nd Ed., pp 574-579).
Determination of GSH content in C6 glioma cultures: GSH levels were analysed by a micromethod, essentially as described by Vandeputte et al. (A microtiterplate assay for total glutathione and glutathione disulfide contents in cultured/isolated cells: performance study of a new miniaturised protocol. 1994. Cell Biol. Toxicol. 10:415-421), with a modification in the washing and homogenisation procedures. Cells (in 96-well plates) were washed with PBS, were homogenised in 50 μl 10 mM HCl containing 1.3% 5-sulfosalicylic acid, and the homogenate was centrifuged at 1200×g for 10 min at 4° C. Forty μl of the supernatant was transferred to a well of a 96-well plate and 200 μl reagent (1 mM 5,5'-dithiobis-(2-nitrobenzoic acid), 0.34 mM NADPH and 6.3 mM EDTA in 143 mM phosphate buffer pH 7.4) was added. After 5 min equilibration to room temperature the reaction was started by adding 40 μl glutathione reductase (8.5 IU/ml 143 mM phosphate buffer, 6.3 mM EDTA pH 7.4). NADPH oxidation was followed at 414 nm for 5 minutes with a Multiskan MCC/340 (Labsystems), and the change in absorbance (DA) per min was calculated. The glutathione content was deduced from a standard curve ranging from 0.2 to 2 nmol commercial GSH per test (DA/min plotted versus concentration).

Assay [5] relates to C6 glioma cells. The assay can be described thus: Fluorescence measurement of intracellular peroxides in C6 glioma cells after glutamate. The assay is classed as cell-based.
Source text: as §1, §2, §3
Fluorescence measurement of intracellular peroxides: Formation of intracellular peroxides was detected using 6-carboxy-2',7'-dichlorodihydrofluorescin diacetate, di(acetoxymethyl ester) (C-DCDHF, Molecular Probes). C-DCDHF was dissolved in DMSO at a concentration of 10 mM and stored at -70° C. under nitrogen. After exposure of the culture to the glutathione depleting agents, the cells were loaded with 10 μM C-DCDHF for one hour at 37° C. Medium was aspirated off, PBS was added to the cells, and plates were read in a Cytofluor II microplate reader (PerSeptive Biosystems). Excitation and emission wavelength were selected with a 485/530 nm filter pair. The results were expressed in relative fluorescence units/μg protein.

Assay [6] relates to C6 glioma cells. The assay can be described thus: Protection of C6 glioma cells from glutathione depletion-mediated oxidative stress (toxicity, LDH assay). The assay is classed as cell-based. As to conditions: Rattus norvegicus, C6 glioma, 48 h, read-out: LDH release, % of total LDH.
Source text: as §1, §2, §3

[7] abbreviates: glutamate 10 mM, without or with compound 1 μM.

As to `O[C@H](CNC[C@@H](O)[C@H]1CCc2cc(F)ccc2O1)[C@@H]1CCc2cc(F)ccc2O1` [Compound 1-nebivolol, (SRRR) α,α'-iminobis(methylene)bis[6-fluoro-2-chroman-methanol]], the β-1 blocking activity entry in assay [1] is “potent and selective β-1 blocking agent”. For the same molecule, the “% vitE complementation” value is 24 ± 26% in assay [2] (10^-6 M) and 22 ± 20% in assay [2] (10^-7 M). Besides, in assay [2], the “rescue of survival of vitE depleted cultures” value was “able to rescue survival of vitE depleted cultures to a certain extent”.
Regarding `O[C@@H](CNC[C@H](O)[C@H]1CCc2cc(F)ccc2O1)[C@@H]1CCc2cc(F)ccc2O1` [d-nebivolol, (RSSS) α,α'-iminobis(methylene)bis[6-fluoro-2-chroman-methanol]], in assay [3], the “potentiation of antihypertensive agents” value is reported as “potentiator for a series of antihypertensive agents”. Moreover, the β-1 blocking activity result in assay [1] was “not to be a potent β-1 blocking agent”. In addition, the “% vitE complementation” value in assay [2] (10^-6 M) is on record as 19 ± 22%; in assay [2] (10^-7 M) it was 12 ± 17%. Further, the “rescue of survival of vitE depleted cultures” value in assay [2] is given as “able to rescue survival of vitE depleted cultures to a certain extent”.
For `N[C@@H](CCC(=O)O)C(=O)O` [glutamate, reference compound], the intracellular glutathione levels result in assay [4] (10 mM glutamate, 6 hr or more) is “sharp reduction in intracellular glutathione levels”. Besides, in assay [4] (setting [7]), the GSH content is given as 296 ± 26 pmol/well. Also, in assay [5] (10 mM glutamate), the “increase in toxic intracellular peroxides” value was roughly 6 fold. For the same molecule, the “Intracellular peroxides (mean ± SD, n)” value in assay [5] (setting [7]) was 525 ± 57 Relative fluorescence units/μg. The cytotoxicity at 10000 µM in assay [6] turned out to be 93.2 ± 1.3%.

The values are drawn from US5874461A, “Use of Nebivolol as an anti-atherogenic” (priority 1995, dated 1999).
